Columns and labels:
mycoplasma [1] = experiment: DAPI staining of mycoplasma in HEK293 cells after ICG light treatment; type: cell-based; details: 50 μg/mL ICG + 780 nm laser, 10 minutes
Protocol: (§1) After HEK293 cells are treated with 50 μg/mL ICG and irradiated with near-infrared light excitation, the distribution of mycoplasma in each group was observed by DAPI staining (the red arrow indicates the expression position of mycoplasma). CTL: control group; −Laser: not excited by laser; +Laser: excited by laser.
(§2) First, HT1080-1B3 and HEK293 cells were collected through trypsin-EDTA reaction and then seeded into a six-well plate at a cell number of 3×10^5 cells/well. The next day, a working concentration of 50 μg/mL of ICG was added to each well, and the reaction took place in the dark at 37° C. for 1 hour. After the reaction was completed, the cells were irradiated with near-infrared light of 780 nm wavelength for 10 minutes. The supernatant was removed, and the cells were washed twice with PBS. Then, a working concentration of 1 μg/ml DAPI was added to each well, and the reaction took place in the dark at room temperature for 15 minutes. Finally, washed twice with PBS, and the quantitative changes of stained mycoplasma chromosomes were observed under the UV light mode of an inverted fluorescence microscope (Nikon).

mycoplasma [2] = experiment: RT-PCR of mycoplasma DNA in HEK293 cells after ICG light treatment; type: cell-based; details: 50 μg/mL ICG + 780 nm laser, 10 minutes
Protocol: (§3) (A) After HEK293 cells are treated with 50 μg/mL ICG and irradiated with near-infrared light excitation, the expression level of mycoplasma DNA in each group was observed by RT-PCR and DNA electrophoresis. (B) Results of DNA electrophoresis were quantitated by the Image J software (p-value: *<0.05, **<0.01, and ***<0.001).
(§4) HT1080-1B3 and HEK293 cells were collected through trypsin-EDTA reaction and then seeded into a six-well plate at a cell number of 3×10^5 cells/well. The next day, a working concentration of 50 μg/mL of ICG was added to each well, and the reaction took place in the dark at 37° C. for 1 hour. After the reaction was completed, the cells were irradiated with near-infrared light of 780 nm wavelength for 10 minutes, the supernatant was removed, and the cells were washed twice with PBS. Then, the cells were collected into a 1.5 mL test tube with trypsin-EDTA, 100 μL KAPA rapid extraction buffer was added to the test tube, and the test tube was placed in a dry bath at 75° C. for 10 minutes and at 95° C. for 5 minutes. Then, DNA samples were prepared according to the operating manual of the e-Myco™ VALID Mycoplasma PCR detection kit, and PCR reaction was performed by PCR instrument (Applied Biosystems) under setting conditions (30 cycles: 95° C./3 minutes, 95° C./15 seconds, 55° C./15 seconds, 72° C./20 seconds and 72° C./1 minute). […]

HEK293 cells = experiment: MTT analysis of cell survival rate after ICG and near-infrared light irradiation; type: cell-based, human; details: ICG at different concentrations + near-infrared light (780 nm) irradiation
Source text: (§5) After administering ICG and near-infrared light (780 nm) excitation and irradiation to HEK293 cells and HT-1080-1B3 cells, observing the cell survival rates of different concentration groups by MTT analysis.

HT-1080-1B3 cells = experiment: as above; type: cell-based; details: ICG at different concentrations + near-infrared light (780 nm) irradiation
Source text: as §5

mycoplasma [3] = experiment: RT-PCR of mycoplasma DNA in HT1080-1B3 cells after ICG light treatment; type: cell-based; details: HT-1080-1B3 cells (overexpress OATP1B3); 50 μg/mL indocyanine green + 780 nm laser, 10 minutes
Protocol: as §3, §4

mycoplasma [4] = experiment: DAPI staining of mycoplasma in HT1080-1B3 cells after ICG light treatment; type: cell-based; details: HT-1080-1B3 cells (overexpress OATP1B3); 50 μg/mL indocyanine green + 780 nm laser, 10 minutes
Protocol: as §1, with “HT1080-1B3” for “HEK293”
as §2

## CC1(C)C(/C=C/C=C/C=C/C=C2\N(CCCCS(=O)(=O)O)c3ccc4ccccc4c3C2(C)C)=[N+](CCCCS(=O)(=O)[O-])c2ccc3ccccc3c21 [ICG, Indocyanine green]
Mycoplasma [1]
  number of mycoplasma bacteria (DAPI staining): significantly reduced
Mycoplasma [2]
  expression level of mycoplasma DNA (RT-PCR, DNA electrophoresis): significantly reduce
HEK293 cells
  cell survival rate (MTT analysis): no negative impact on cells
HT-1080-1B3 cells
  cell survival rate (MTT analysis): no negative impact on cells
Mycoplasma [3]
  expression level of mycoplasma DNA (RT-PCR, DNA electrophoresis): no expression level of mycoplasma DNA was observed
Mycoplasma [4]
  number of mycoplasma bacteria (DAPI staining): disappears

Reference: patent US20250375525A1, “USE OF INDOCYANINE GREEN IN ANTIBACTERIAL OR BACTERICIDAL APPLICATION” (Buddhist Tzu Chi Medical Foundation, priority 2024, published 2025)
